Values joined by “and” are separate entries in the source; they are usually repeats but may differ in a detail not shown here. Equal entries are not always repeated.
Key:
TAOK1 = molecular target: T1, TAOK1 (Homo sapiens, UniProt Q7L7X3); test: Enzymatic assay (LanthaScreen, Thermo Fisher); format: biochemical; settings: for inhibition at 10 µM / Inhibition percentage at 10 μM TAOK1: 10 μM compound, average of two replicates; for inhibition at 10 µM: read-out: Inhibition percentage at 10 μM TAOK1
T1 construct: purchased Thermo Fisher Scientific (outsourced assay service)
T1 sequence (Q7L7X3 1-1001): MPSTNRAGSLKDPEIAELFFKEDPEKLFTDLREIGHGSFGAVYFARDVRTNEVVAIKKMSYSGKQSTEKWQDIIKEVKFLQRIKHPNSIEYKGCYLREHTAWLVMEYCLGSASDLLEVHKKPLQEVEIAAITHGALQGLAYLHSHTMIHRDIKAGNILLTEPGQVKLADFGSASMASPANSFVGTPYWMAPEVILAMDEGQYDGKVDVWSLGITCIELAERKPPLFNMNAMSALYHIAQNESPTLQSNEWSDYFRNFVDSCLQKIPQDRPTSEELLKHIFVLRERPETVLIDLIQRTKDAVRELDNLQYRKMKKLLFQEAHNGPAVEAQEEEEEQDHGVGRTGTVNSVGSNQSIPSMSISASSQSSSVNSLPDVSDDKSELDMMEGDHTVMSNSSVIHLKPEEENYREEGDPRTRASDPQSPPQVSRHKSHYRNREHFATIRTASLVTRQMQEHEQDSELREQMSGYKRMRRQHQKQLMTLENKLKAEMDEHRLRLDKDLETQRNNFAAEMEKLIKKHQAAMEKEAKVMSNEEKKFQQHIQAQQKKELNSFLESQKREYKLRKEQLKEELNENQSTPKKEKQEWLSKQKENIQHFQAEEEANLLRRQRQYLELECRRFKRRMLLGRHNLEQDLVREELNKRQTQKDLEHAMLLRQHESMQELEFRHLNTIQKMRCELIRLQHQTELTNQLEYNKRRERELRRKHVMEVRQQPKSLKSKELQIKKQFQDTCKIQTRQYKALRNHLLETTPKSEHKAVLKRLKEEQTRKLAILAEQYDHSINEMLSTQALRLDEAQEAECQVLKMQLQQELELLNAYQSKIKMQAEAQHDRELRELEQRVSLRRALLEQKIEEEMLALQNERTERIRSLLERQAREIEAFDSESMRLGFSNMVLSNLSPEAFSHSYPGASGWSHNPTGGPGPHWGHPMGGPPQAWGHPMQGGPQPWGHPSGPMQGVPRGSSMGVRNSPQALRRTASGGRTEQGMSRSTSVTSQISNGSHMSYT
Description: (§1) The enzymatic assay was outsourced to Thermo Fisher Scientific to conduct. They used LanthaScreen and Z´-LYTE technology, which were both robust homogeneous assays method by Fluorescence Resonance Energy Transfer (FRET) to evaluate TAOK1 and MAP4K5, respectively. Briefly, the test compound was co-incubated with fluorescein-labelled substrate, kinase, ATP, kinase buffer and development reagent for reaction. After 1 h, the stop solution (EDTA) was added and then the results were determined by a fluorescence reader. The data was shown as an average of two replicates.

MAP4K5 = molecular target: T2, MAP4K5 (Homo sapiens, UniProt Q9Y4K4); test: Enzymatic assay (Z'-LYTE, Thermo Fisher); format: biochemical; settings: for inhibition at 10 µM / Inhibition percentage at 10 μM MAP4K5: 10 μM compound, average of two replicates; for inhibition at 10 µM: read-out: Inhibition percentage at 10 μM MAP4K5
T2 construct: purchased Thermo Fisher Scientific (outsourced assay service)
T2 sequence (Q9Y4K4 whole entry): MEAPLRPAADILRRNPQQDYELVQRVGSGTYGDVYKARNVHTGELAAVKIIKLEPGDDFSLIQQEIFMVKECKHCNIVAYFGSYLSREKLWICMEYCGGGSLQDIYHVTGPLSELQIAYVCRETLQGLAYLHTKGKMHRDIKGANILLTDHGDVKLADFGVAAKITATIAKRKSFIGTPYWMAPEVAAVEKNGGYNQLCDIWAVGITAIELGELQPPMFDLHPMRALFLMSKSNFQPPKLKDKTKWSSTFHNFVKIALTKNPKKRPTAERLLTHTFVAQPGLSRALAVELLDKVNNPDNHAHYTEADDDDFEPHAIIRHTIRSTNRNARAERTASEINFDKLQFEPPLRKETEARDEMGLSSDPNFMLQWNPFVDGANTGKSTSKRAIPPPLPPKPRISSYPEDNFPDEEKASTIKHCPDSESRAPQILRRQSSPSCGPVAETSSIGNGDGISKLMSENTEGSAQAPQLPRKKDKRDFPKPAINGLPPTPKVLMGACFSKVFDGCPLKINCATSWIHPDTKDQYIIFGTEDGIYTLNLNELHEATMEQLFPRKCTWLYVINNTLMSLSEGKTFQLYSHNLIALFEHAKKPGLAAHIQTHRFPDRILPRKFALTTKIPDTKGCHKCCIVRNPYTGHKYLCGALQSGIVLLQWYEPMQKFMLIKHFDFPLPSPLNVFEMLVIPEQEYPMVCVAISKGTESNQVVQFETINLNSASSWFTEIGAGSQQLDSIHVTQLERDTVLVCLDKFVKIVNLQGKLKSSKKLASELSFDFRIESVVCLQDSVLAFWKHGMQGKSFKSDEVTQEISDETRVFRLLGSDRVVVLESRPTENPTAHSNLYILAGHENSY
Description: as §1

HCT116, HT29 and H1299 = test: Single-concentration SRB and MTT assays in cancer cell lines; format: cell-based, Human; settings: for Effect in cell-based experiments: HCT116, HT-29, H1299
Description: (§2) Human colorectal cancer cell lines HCT116, HT-29 and human lung cancer cell line, H1299 were purchased from the Bioresource Collection and Research Centre (BCRC, Taiwan) and were incubated either in McCoy’s 5 A medium or RPMI-1640 medium (Thermo Fisher Scientific, Walthma, MA, USA), supplemented with 10% foetal bovine serum and 1% Penicillin-Streptomycin-Amphotericin B Solution (Biological Industries, Kibbutz Beit-Haemek, Israel) at 37 °C in a humidified atmosphere with 5% CO2.
(§3) Cell viability was determined by MTT (3–(4,5-dimethylthiazol-2-yl)-2,5-diphenyltetrazolium bromide, Sigma Chemical Co, St. Louis, MO, USA) assay. Cells were seeded in 96-well plates at a density of 5,000 cells/well in a regular culture medium overnight. Then, the cells were treated with various concentrations of indicated compounds for 72 h. After that, the medium was removed, 100 µL MTT solution (0.5 mg/ml in phosphate-buffered saline, PBS) was added to each well and then incubated for 1 h at 37 °C. The insoluble formazan dyes, representing the active mitochondrial dehydrogenase in live cells, were dissolved in the dimethyl sulfoxide (DMSO). The absorbance was analysed by an ELISA reader (Beckman Coulter, Brea, CA, USA) at 550 nm.
(§4) SRB (sulforhodamine B, Sigma Chemical Co, St Louis, MO, USA) assay was used to analyse cell proliferation. Cells were seeded in 96-well plates at a density of 5000 cells/well and then treated with various concentrations of indicated compounds for 48 h. Cells were fixed with 10% TCA (trichloroacetic acid), washed with PBS, and stained with 100 µL SRB solution (0.4% SRB in 1% acetic acid) for 15 min. Then, cells were washed three times with 1% acetic acid and dissolved in the trizma base solution (10 mM). The absorbance was measured by an ELISA reader (Beckman Coulter Diagnostics, Brea, CA, USA) at […].

HT-29 cells = test: Cell cycle distribution by flow cytometry; format: cell-based, Human
Description: The cell cycle distribution was measured by flow cytometry. HT-29 cells were treated with or without the indicated concentrations of compound 1 for 24 or 48 h or 72 h. The cells were harvested by trypsinizing and fixed in ice-cold 75% ethanol for 1 h at −20 °C. The samples were washed with PBS and resuspended in the proper amount of DNA extraction buffer, containing 0.2 M Na2HPO4 and 0.1 M citric acid pH 7.8, for 30 min. Then the cells were washed again with PBS and stained with propidium iodide solution containing 100 µg/ml RNaseA, 80 µg/ml propidium iodide and 0.1% Triton X-100, which were all in PBS. Finally, cell cycle distribution was determined and performed by utilising BD Accuri™ and C6 Software (BD Biosciences, Franklin Lakes, NJ, USA).

HT29 cells [1] = test: SRB cell proliferation assay; format: cell-based; settings: Homo sapiens, HT-29, 48 h, read-out: GI50 (50% of growth inhibition)
Description: as §2, §4

HCT116 cells [2] = test: SRB cell proliferation assay; format: cell-based; settings: Homo sapiens, HCT-116, 48 h, read-out: GI50 (50% of growth inhibition)
Description: as §2, §4

H1299 cells [3] = test: SRB cell proliferation assay; format: cell-based; settings: Homo sapiens, NCI-H1299, 48 h, read-out: GI50 (50% of growth inhibition)
Description: as §2, §4

HT29 cells [4] = test: MTT cell viability assay; format: cell-based; settings: Homo sapiens, HT-29, 72 h, read-out: IC50 (cell survival)
Description: as §2, §3

HCT116 cells [5] = test: MTT cell viability assay; format: cell-based; settings: Homo sapiens, HCT-116, 72 h, read-out: IC50 (cell survival)
Description: as §2, §3

H1299 cells [6] = test: MTT cell viability assay; format: cell-based; settings: Homo sapiens, NCI-H1299, 72 h, read-out: IC50 (cell survival)
Description: as §2, §3

[7] = system: panel of around 70 kinases; test: Kinase selectivity (Thermo Fisher SelectScreen kinome panel); format: biochemical; settings: concentration selected based on IC50 values
Description: The kinase selectivity of selected compounds was performed by Thermo Fisher Select Screen service. A kinome screen occurred across a panel of roughly 70 kinases. Conditions and analyses are available online (www.thermofisher.com/selectscreen).
To evaluate the selectivity of the inhibitors identified in this study, a biochemical assay was conducted by ThermoFisher Scientific. A panel of around 70 kinases from different kinase families as well as all available members of the STE kinase family, was selected for testing (Supplemental Figure 3). The concentration of the compound was selected based on their IC50 values. […] The target kinase in this study, MAP4K5 and TAOK1, belong to the STE20 kinase family. Of the kinases inhibited by compounds 1 and 2, we found eight and three of the kinases to belong to the STE20 kinase family. Together, this implies that the inhibitors identified in this study are selective towards the STE20 kinase family.

Structure (SMILES)	inhibition at 10 µM (TAOK1)	inhibition at 10 µM (MAP4K5)	IC50 (TAOK1)	Inhibition percentage at 10 μM TAOK1 (TAOK1)	Number of kinases inhibited in panel [7]	IC50 (MAP4K5)	Inhibition percentage at 10 μM MAP4K5 (MAP4K5)	other results
CCN1CCN(CCNc2nccc(-c3c(-c4cccc(O)c4)nc4sccn34)n2)S1(=O)=O [Compound 1]	–	–	4.15 µM	≥ 50% and 74%	nine	2.25 µM	≥ 50% and 84%	Cancer cell proliferation (SRB) at 10 µM and survival (MTT) at 30 µM (HCT116, HT29 and H1299; 10 µM for 48 h (SRB), 30 µM for 72 h (MTT), HCT116, HT29, H1299): significantly inhibited; Number of G0/G1-phase cells (HT-29 cells; HT29, 24 h treatment): increased in a concentration-dependent manner; Cell cycle effect (HT-29 cells; HT-29, 24 h): arrested cancer cells at the G0/G1 phase; GI50 (HT29 cells [1]): 6.8 µM; GI50 (HCT116 cells [2]): 3.9 µM; GI50 (H1299 cells [3]): 19.2 µM; IC50 (HT29 cells [4]): 13.3 µM; IC50 (HCT116 cells [5]): 13.3 µM; IC50 (H1299 cells [6]): 23.6 µM; Number of inhibited kinases belonging to the STE20 kinase family [7]: eight
Nc1nc(N)c2nc(-c3ccc(O)cc3)c(-c3ccc(O)cc3)nc2n1 [Compound 2]	–	–	1.83 µM	≥ 50% and 84%	five	2 µM	≥ 50% and 77%	Effect in cell-based experiments (HCT116, HT29 and H1299): limited effects; Number of inhibited kinases belonging to the STE20 kinase family [7]: three
Nc1ncnc2nc(-c3ccc(C(=O)c4ccc([N+](=O)[O-])cc4)cc3)[nH]c12 [Compound 3]	≥ 50%	≥ 50%	5.3 µM	63%	23 kinases	6.28 µM	51%	Effect in cell-based experiments (HCT116, HT29 and H1299): limited effects

Continued, in another order:

inhibition at 10 µM (TAOK1)	inhibition at 10 µM (MAP4K5)	IC50 (TAOK1)	Inhibition percentage at 10 μM TAOK1 (TAOK1)	Number of kinases inhibited in panel [7]	IC50 (MAP4K5)	Inhibition percentage at 10 μM MAP4K5 (MAP4K5)	Structure (SMILES)	other results
1%	44%	–	–	–	–	–	O=C(Nc1nc2ccccc2[nH]1)c1ccc(C(=O)Nc2nc3ccccc3[nH]2)cc1 [Compound 5]	–
12%	41%	–	–	–	–	–	CC(=O)Nc1ccc(Nc2nc(Cl)nc(Nc3ccc(NC(C)=O)cc3)n2)cc1 [Compound 6]	–
4%	47%	–	–	–	–	–	CC1=C(C(=O)Nc2cccc3c2C(=O)NC3=O)CC(C(=O)Nc2cccc3c2C(=O)NC3=O)=C(C)N1 [Compound 7]	–
19%	54%	–	–	–	–	–	Nc1nnc(N)c2nc(-c3ccccc3)c(-c3ccccc3)nc12 [Compound 4]	–

From PMC7655034, “Identification of a dual TAOK1 and MAP4K5 inhibitor using a structure-based virtual screening approach” (Journal of Enzyme Inhibition and Medicinal Chemistry, 2020)
